Data set [1] is described as follows: HA gelation consistency (Method III) with inhibitors, no Hyase. The format is physicochemical. To be noted: for Consistency: Table 8: HA 1% 2cc + 20 μL inhibitor stock. The method, then: Method III (Viscosity of HA): HA at low concentrations (e.g., 1%) in aqueous solution forms a viscous colloidal hydrogel solution, which yields semi-solid gel particles at room temperature and a solid gel at 4° C.
HA degradation was evaluated using Method III, as described hereinabove.
HA Gelation in the presence of Hyase Inhibitors, without Hyase was studied while using the following Stock solutions:
To each tube containing 2 mL of 1% HA one of the following inhibitors: SCG, Tranilast, and Glutathione (100 μL of each), and NAC (50 μL) was added. […] No Hyase was present.
Using the same protocols as above, HA degradation was tested following incubation of HA (2 ml of a 1% Stock solution) and a Hyase inhibitor (20 μL of a stock solution as described hereinabove), at 37° C., in the presence and absence of Hyase.

Data set [2] concerns hyaluronidase Type IV-S, from bovine testes (Hyase). The data set can be described thus: Dische's assay (Method II) of HA degradation by Hyase with inhibitors. The format is biochemical. To be noted: for % HA degraded: 20 μL inhibitor stock incubated 2 h with 20 μL Hyase, then HA 200 μL; for % HA degraded / % HA intact (precipitated): room temperature 24 h; for % of inhibition of HA degradation: derived from Table 1; for % HA intact (precipitated): represents % of Hyase inhibition, 20 μL inhibitor, 20 μL Hyase, HA 200 μL. On the procedure: Method II (Dische's assay; detection of uronic acid residues): Assays were performed by following the procedures described in Dische Z. [J. Biol. Chem., 1947, 167, p. 189-198] and Dische and Rothschild [Anal Biochem., 1967, 21(1), p. 125-30]. In these assays, molecules containing the uronic acid residues found in the precipitate formed upon CPC additions, are re-solubilized and products formed by -sulfuric acid hydrolysis of these fragments are detected by a spectrophotometric assay employing carbazole chromagen reagent. In addition, small residues degraded off the HA chains that have not precipitated with the addition of CPC, can be detected by the carbazole assay performed on the solution, so as to detect all of the uronic acid content.
Evaluation of HA degradation by this method was generally performed as follows:
20 μL of a NAC stock solution, and 20 μL of the stock solutions of the other inhibitors were used in the assay.
200 μL of the HA stock solution were placed in each tube, for achieving a 1 mg HA per tube.
Twenty (20) μL of hyase and 20 μL of NAC were combined and incubated for 2 hours. Then 200 μL of HA (1 mg) were added to each tube and the mixture was incubated at room temperature for 24 hours. Thereafter, the tubes were heated for 2 minutes in boiling water bath and 8 mL of doubled distilled water were added to the tubes as preparation for the Dische's assay.
As per Dische's Assay, 100 μL of 3N NaCl and 0.5 mL of 10% CPC (cetylpyridinium chloride) were thereafter added to each tube and the mixture was incubated at 37° C. until flocculation-turbidity (resulting from precipitation of HA+CPC) could be observed. The mixture was centrifuged for 10 minutes at 10,000 g at room temperature, and the supernatant was thereafter separated from the obtained pellet.
The pellet was dissolved in 1 ml of CaCl2, and the obtained solution was incubated at 37° C. until complete dissolution of the pellet is obtained. A 2:1 v/v ethanol/ether mixture (8 ml) was thereafter added, and the mixture was intensively stirred (by vortex) and kept at −20° C. overnight. The obtained pellet was collected following a centrifugation for 10 minutes at 10,000 g. Then, distilled water (1 mL) was added to solubilize the pellet, followed by addition of 0.2 ml Carbazole 1%. The mixture was stirred thoroughly, and concentrated sulfuric acid (6 mL) was thereafter added.
The samples were transferred into tight closed tubes, placed for 10 minutes in a boiling water bath, and was thereafter cooled in ice until it reached room temperature.
The pink-violet color developed by the chromogen was measured using a spectrophotometer at 527 nm.
Ditch assay, as described hereinabove (Method II) was performed while using the following Hyase inhibitors:
The experiment was run at room temperature (23° C.). Hyase and Inhibitors were incubated first for 2 hours prior to the addition of HA. Blank tubes included no substrate (HA) and Control tubes included no enzyme, no inhibitor and HA (200 μL). Tubes 5 and 6 contained HA and Hyase with no inhibitor. Standard Solutions with no enzyme and no inhibitor and HA 50 μL and 10 μL were also tested, for calibration. % HA cleaved denotes the weight percent of HA that was degraded. % HA residue denotes the weight percent of non-degraded HA, and represents the % of Hyase inhibition.

Data set [3] is described as follows: TMA malodor neutralization by myrac aldehyde, evaluated by smelling. On the procedure:
The experimental system for following the neutralization of an exemplary malodorous compound trimethylamine (TMA) by an exemplary malodor neutralizing agent aldehyde myrac aldehyde, was based on assaying the CHO functional group using the Park-Johnson method [Park, J. T. and Johnson, M. J., J. Biol. Chem., 1949, 181, p. 149]. TMA levels were analyzed using Siemens Multistix 10 SG reagent strips.
Determination of the concentration of myrac aldehyde needed to neutralize TMA malodor was evaluated by smelling 2 ml samples of an aqueous solution containing 2 mM TMA (4 micromole of TMA in 2 ml of water). […]

The structures appear in SMILES notation. Some results are limits rather than exact numbers.

Take `O=C(O)c1cc(=O)c2c(OCC(O)COc3cccc4oc(C(=O)O)cc(=O)c34)cccc2o1` [Cromoglycate, sodium Cromoglycate]: the Consistency result in data set [1] (at 4° C.) was “Solid (for a solid the results were in the range of 80-100 Pa S and higher)”. In addition, the Consistency result in data set [1] (at 37° C.) is “Semisolid (for a semi-solid in the range of 50-70 Pa S)”. Further, in data set [2], the “% HA degraded” value came out at 96.7%, the “% of inhibition of HA degradation” value was 3.3% and the “% HA intact (precipitated)” value came to 3.3%.
For `N[C@@H](CCC(=O)N[C@@H](CS)C(=O)NCC(=O)O)C(=O)O` [Glutathione, Reduced Glutathione], the HA gel consistency entry in data set [1] (2 mL 1% HA + inhibitor stock (100 μL; NAC 50 μL), 37° C. 24 hours) is given as “viscous liquid”. In data set [1] (at 4° C.), the Consistency entry was “Solid (for a solid the results were in the range of 80-100 Pa S and higher)”. In addition, the Consistency entry in data set [1] (at 37° C.) was “Viscous liquid (for a viscous liquid in the range of 1-10 Pa S)”. In addition, in data set [2], the “% HA degraded” value was found to be 82%, the “% of inhibition of HA degradation” value worked out at 18% and the “% HA intact (precipitated)” value is given as 18%.
As to `CC(C)=CCCC1=CCC(C=O)CC1` (stereo not shown) [myrac aldehyde, 4-(4-methylpent-3-enyl)cyclohex-3-ene-1-carbaldehyde], the “concentration from which the scent of myrac aldehyde is perceived and masks the smell of TMA” value in data set [3] (2 mM TMA in water) is not below 4%. Besides, the “concentration of myrac aldehyde that can neutralize the smell of TMA” value in data set [3] (2 mM TMA in water) is listed as “about 2%”. Besides, the Perceived scent result in data set [3] (Sample 1: 2 μl aldehyde in 2 ml TMA 2 mM solution, 0.1 percent aldehyde) is recorded as “Strong fishy”; in data set [3] (Sample 2: 10 μl aldehyde in 2 ml TMA 2 mM solution, 0.5 percent aldehyde) it was “fishy”; in data set [3] (Sample 3: 20 μl aldehyde in 2 ml TMA 2 mM solution, 1 percent aldehyde) it was “Faint fishy”; in data set [3] (Sample 4: 40 μl aldehyde in 2 ml TMA 2 mM solution, 2 percent aldehyde), “No scent”; in data set [3] (Sample 5: 80 μl aldehyde in 2 ml TMA 2 mM solution, 4 percent aldehyde) it was “Faint myrac”; in data set [3] (Sample 6: 100 μl aldehyde in 2 ml TMA 2 mM solution, 5 percent aldehyde) it was “Myrac”. Moreover, the Perceived scent result in data set [3] (Sample 7: 200 μl aldehyde in 2 ml TMA 2 mM solution, 10 percent aldehyde) is listed as “Myrac”; in data set [3] (Sample 8: 300 μl aldehyde in 2 ml TMA 2 mM solution, 15 percent aldehyde), “Strong Myrac”; in data set [3] (Sample 9: 400 μl aldehyde in 2 ml TMA 2 mM solution, 20 percent aldehyde) it was “Strong myrac”.

Source of the values: patent US10004761B2, “Malodor neutralizing composition” (priority 2016, dated 2018).
